# pIC50: −log10 of the molar value.
# What was measured:
# BV-2 = assay: Antiinflammatory activity in LPS induced mouse BV-2 cells decrease in release of […] at 5 uM by […] (reference value: 100%); assay type: functional
# [1] = molecular target: T1, Amyloid-beta precursor protein (Homo sapiens, UniProt P05067); assay: Inhibition of amyloid beta (1 to 42) (unknown origin) self aggregation at 50 uM relative to control
# [2] = Antioxidant activity by measuring oxygen radical absorbance capacity-fluorescein values; assay type: functional
# [3] = molecular target: T1, Amyloid-beta precursor protein; assay: Inhibition of amyloid beta (1 to 42) (unknown origin) self aggregation assessed as disaggregation relative to control; set-up: concentration or dose not given beside the values; details: concentration not given here
# [4] = molecular target: T1, Amyloid-beta precursor protein; assay: Inhibition of amyloid beta (1 to 42) (unknown origin) self aggregation assessed as disaggregation
# [5] = molecular target: T1, Amyloid-beta precursor protein; assay: Inhibition of amyloid beta (1 to 42) (unknown origin) self aggregation
# T1 sequence (P05067 whole entry): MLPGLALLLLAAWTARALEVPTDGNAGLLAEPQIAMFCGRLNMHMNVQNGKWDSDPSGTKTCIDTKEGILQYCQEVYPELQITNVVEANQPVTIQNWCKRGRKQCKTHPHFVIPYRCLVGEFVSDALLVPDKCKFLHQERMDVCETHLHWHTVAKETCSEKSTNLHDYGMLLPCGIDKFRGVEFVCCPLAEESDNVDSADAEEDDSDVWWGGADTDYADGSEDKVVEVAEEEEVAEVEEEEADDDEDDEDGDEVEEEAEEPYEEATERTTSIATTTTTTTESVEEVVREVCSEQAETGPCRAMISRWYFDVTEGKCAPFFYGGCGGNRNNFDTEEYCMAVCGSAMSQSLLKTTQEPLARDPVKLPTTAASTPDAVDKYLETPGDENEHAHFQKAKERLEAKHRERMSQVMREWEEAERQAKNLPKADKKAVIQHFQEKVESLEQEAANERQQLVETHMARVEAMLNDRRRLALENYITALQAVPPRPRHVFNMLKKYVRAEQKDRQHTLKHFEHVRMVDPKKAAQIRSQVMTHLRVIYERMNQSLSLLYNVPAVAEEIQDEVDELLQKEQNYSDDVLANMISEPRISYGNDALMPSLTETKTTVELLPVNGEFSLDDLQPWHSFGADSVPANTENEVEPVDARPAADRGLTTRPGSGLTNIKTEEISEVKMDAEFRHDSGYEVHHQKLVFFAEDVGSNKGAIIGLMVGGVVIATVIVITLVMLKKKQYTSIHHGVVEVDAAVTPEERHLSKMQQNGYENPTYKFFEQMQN
SMILES,Nitric oxide release (% of LPS control) (BV-2) [%],inhibition [1] [%],Activity index [2],inhibition [3] [%],pIC50 [4],pIC50 [5]
Oc1ccc(/C=C/c2cc(O)cc(O)c2)cc1 [RESVERATROL],86.97,73.2,–,–,–,–
CN1CCN(c2ccc(/C=C/c3occc(=O)c3O)cc2)CC1,96.04,30.6,2.33,56.1,–,–
COc1ccc(/C=C/c2occc(=O)c2O)cc1O,90.08,57.4,1.62,48.9,4.36,4.36
COc1ccc(/C=C/c2occc(=O)c2O)cc1,91.49,34,0.75,39,–,–
O=c1ccoc(/C=C/c2ccc(F)c(O)c2)c1O,93.87,23.8,3.19,24,–,–
COc1ccccc1/C=C/c1occc(=O)c1O,77.3,23.5,0.79,30.9,–,–
O=c1ccoc(/C=C/c2ccccc2F)c1O,56.97,19.9,1.49,12.6,–,–
COc1ccc(/C=C/c2occc(=O)c2O)cc1OC,97.14,10.4,1.73,20.6,–,–
O=c1ccoc(/C=C/c2ccc([N+](=O)[O-])cc2)c1O,88.99,56.8,0.79,62.8,4.58,4.42
O=c1ccoc(/C=C/c2cccc(Cl)c2)c1O,88.17,23.2,1.21,28.2,–,–
N#Cc1ccc(/C=C/c2occc(=O)c2O)cc1,88,16.8,1.9,17,–,–
CC(C)(C)c1ccc(/C=C/c2occc(=O)c2O)cc1,94.03,37.7,0.07,31.6,–,–
O=c1ccocc1O,93.85,–,1.75,–,–,–
O=c1ccoc(/C=C/c2ccccc2Cl)c1O,54.58,27.7,1.13,19.2,–,–
CN(C)c1ccc(/C=C/c2occc(=O)c2O)cc1,92.3,53.7,0.87,47.6,4.37,4.33
COC(=O)c1ccc(/C=C/c2occc(=O)c2O)cc1,71.82,33.7,0.25,27.6,–,–

SMILES,Nitric oxide release (% of LPS control) (BV-2) [%],inhibition [1] [%],Activity index [2],inhibition [3] [%],pIC50 [4],pIC50 [5]
O=c1ccoc(/C=C/c2ccccc2)c1O,78.21,7.59,0.52,8.21,–,–
O=c1ccoc(/C=C/c2ccc(N3CCCCC3)cc2)c1O,100.49,59.6,2.21,60.5,4.57,4.48
COc1cc(/C=C/c2occc(=O)c2O)ccc1O,90.67,48.5,1.96,42.9,–,–
O=c1ccoc(/C=C/c2cccc(F)c2)c1O,71.55,24.2,1.55,18.5,–,–
Cc1ccc(/C=C/c2occc(=O)c2O)cc1,85.2,28.6,0.32,15.1,–,–
O=c1ccoc(/C=C/c2ccc(O)cc2)c1O,86.81,36.7,2.79,29.6,–,–
O=c1ccoc(/C=C/c2ccc(N3CCOCC3)cc2)c1O,100.11,50.4,2.25,65.8,4.62,4.31
O=c1ccoc(/C=C/c2ccc(-c3ccccc3)cc2)c1O,87.38,52,0.4,46.7,–,–
COc1cccc(/C=C/c2occc(=O)c2O)c1,72.79,13.6,0.8,42.8,–,–
O=c1ccoc(/C=C/c2ccc(C(F)(F)F)cc2)c1O,88.82,30.5,0.12,25.9,–,–
O=c1ccoc(/C=C/c2ccc3ccccc3c2)c1O,102.37,50.6,1.38,45.9,–,–
O=c1ccoc(/C=C/c2ccc(O)c(F)c2)c1O,86.66,36.1,2.78,32.2,–,–
O=c1ccoc(/C=C/c2ccc(N3CCSCC3)cc2)c1O,98.13,53.9,1.48,62.8,4.55,4.33
Cc1c(C)c2c(c(C)c1O)CCC(C)(C(=O)O)O2 (stereo not drawn),–,–,1,–,–,–
O=c1ccoc(/C=C/c2ccc(Cl)cc2)c1O,97.73,30.4,1.02,26.9,–,–
O=c1ccoc(/C=C/c2ccc(F)cc2)c1O,88.36,8.6,1.13,14.8,–,–
